In data set [1] the test system is Staphylococcus aureus Russell. As to the kind of experiment: activity in combination with ampicillin and cephaloridine (synergy, MIC). The class given is cell-based. How it is done: (§1) The antibacterial activity of the material produced as above was determined by the microtitre method using the overnight inoculum of the test organism at 0.2% concentration. The synergistic activity of the di-sodium salt of MM 17880 in combination with ampicillin and with cephaloridine against Klebsiella aerogenes and Staphylococcus aureus Russell are shown in Table 3.

The test system of data set [2] is Klebsiella aerogenes A. Described as above. The class given is cell-based. The protocol: as §1
The nature of data set [3]: stability of salts and unsalted acid. The following applies: salts vs unsalted acid; in solution. The data set is classed as physicochemical.
Another data set relates to Klebsiella aerogenes. As to the kind of experiment: hole in plate method on agar seeded with Klebsiella aerogenes (arbitrary units). The class given is cell-based. The following applies: final solid of Example 1, sodium salt. How it is done: 300 ml. of 10% Pluronic L81 in soya-bean oil was added to prevent foaming. The fermentation was harvested after 48 hours and clarified by centrifugation. The clarified brew was arbitarily assigned an activity of 340 units/ml when assayed by the conventional hole in plate method on agar seeded with Klebsiella aerogenes.

Another data set concerns Serratia marcescens US1. As to the kind of experiment: antibacterial activity (MIC), microtitre method, heavy inoculum. The class given is cell-based. The following applies: overnight inoculum at 0.2%. How it is done: as §1
(§2) Microtitre - heavy inoculum

Data set [4] relates to Citrobacter freundii Mantio. The description is as above. The class given is cell-based. The following applies: overnight inoculum at 0.2%. The protocol: as §1, §2
The test system of the next data set is Proteus retigeri VM16. The description is as above. The class given is cell-based. The following applies: overnight inoculum at 0.2%. How it is done:
as §1, §2

For data set [5], the system named is Streptococcus pyrogenes CN10. The data set is described as above. The class given is cell-based. The following applies: overnight inoculum at 0.2%. The protocol: as §1, §2
Data set [6] has as its system Staphylococcus aureus Russell. Described as above. The data set is classed as cell-based. The following applies: overnight inoculum at 0.2%. How it is done: as §1, §2
A further data set has as its system Proteus vulgaris W090. Described as above. The class given is cell-based. The following applies: overnight inoculum at 0.2%. The protocol:
as §1, §2

Data set [7] deals with Klebsiella aerogenes A. The description is as above. The following applies: overnight inoculum at 0.2%. The class given is cell-based. The protocol: as §1, §2
In the next data set the test system is Proteus morganii 1580. Described as above. The class given is cell-based. The following applies: overnight inoculum at 0.2%. How it is done:
as §1, §2

The subject of data set [8] is Klebsiella aerogenes Ba95. The description is as above. The class given is cell-based. The following applies: overnight inoculum at 0.2%. The protocol:
as §1, §2

The subject of data set [9] is Salmonella typhimurium CT10. Described as above. The class given is cell-based. The following applies: overnight inoculum at 0.2%. How it is done: as §1, §2
In another data set the test system is Pseudomonas aeruginosa A. The data set is described as above. The data set is classed as cell-based. The following applies: overnight inoculum at 0.2%. The protocol:
as §1, §2

Data set [10] has as its system Staphylococcus aureus Oxford. Described as above. The data set is classed as cell-based. The following applies: overnight inoculum at 0.2%. The protocol:
as §1, §2

Another data set relates to Proteus mirabilis 13. The data set is described as above. The data set is classed as cell-based. The following applies: overnight inoculum at 0.2%. How it is done: as §1, §2
A further data set concerns Streptococcus faccalis I. Described as above. The data set is classed as cell-based. The following applies: overnight inoculum at 0.2%. The protocol:
as §1, §2

The subject of another data set is E. coli 10418. Described as above. The following applies: overnight inoculum at 0.2%. The data set is classed as cell-based. How it is done: as §1, §2
Another data set relates to Bacillus subtilis. Described as above. The class given is cell-based. The following applies: overnight inoculum at 0.2%. The protocol: as §1, §2
A further data set concerns E. coli JT4. The data set is described as above. The class given is cell-based. The following applies: overnight inoculum at 0.2%. The protocol:
as §1, §2

The subject of data set [11] is certain β-lactamase producing strains of Staphylococcus aureus and Klebsiella aerogenes. The data set can be described thus: synergy with β-lactam antibiotics (general statement). The class given is cell-based. The following applies: substantially pure; with ampicillin, amoxycillin and the like.
In data set [12] the target is T1, β-lactamase from E. coli JT4 (Escherichia coli, UniProt P62593).
T1 construct: β-lactamase from E. coli JT4; endogenous in cells; host or cells: E. coli JT4
T1 sequence (P62593 24-286 limits assumed): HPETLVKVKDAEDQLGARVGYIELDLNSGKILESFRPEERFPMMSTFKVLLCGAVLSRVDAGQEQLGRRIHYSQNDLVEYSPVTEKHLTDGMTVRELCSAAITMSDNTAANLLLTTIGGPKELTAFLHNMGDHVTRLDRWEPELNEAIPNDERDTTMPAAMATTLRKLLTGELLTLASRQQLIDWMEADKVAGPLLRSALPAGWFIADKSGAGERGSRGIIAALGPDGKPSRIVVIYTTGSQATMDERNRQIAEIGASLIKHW
The data set can be described thus: β-lactamase inhibition by the method of Belgian Pat. No. 827331. The following applies: read-out: I50 (converted). The data set is classed as biochemical.

The test system of data set [13] is certain gram-positive and gram-negative organisms. The data set can be described thus: antibacterial activity, microtitre method (general statement). The data set is classed as cell-based. The following applies: substantially pure. An excerpt: It is likely that MM 17880 has a molecular weight between 300 and 500. […] Thus MM 17880 has the molecular formula C11-14 […]-23 O8-11 N2 S2.

Counter-ions that a name gives are not always drawn.

The MIC is the least concentration at which growth counts as inhibited. As for `CC1(C)S[C@@H]2[C@H](NC(=O)[C@H](N)c3ccccc3)C(=O)N2[C@H]1C(=O)O` [Ampicillin, ampicillin], the MIC was 500 µg/mL in [1] and 250 µg/mL in the data set with Klebsiella aerogenes A [2].
On to `O=C(Cc1cccs1)N[C@@H]1C(=O)N2C(C(=O)[O-])=C(C[n+]3ccccc3)CS[C@H]12` [Cephaloridine, cephaloridine], for which the values for the minimum inhibitory concentration (MIC) (in data set [1] (compound alone); in the data set with Klebsiella aerogenes A [2] (compound alone)) were 1.25 µg/mL and 5.0 µg/mL, respectively.
For the compound `CC(=O)NCCSC1=C(C(=O)O)N2C(=O)C(C(C)OS(=O)(=O)O)C2C1` (stereo not shown) [MM 17880], the MIC in [1] was 3.1 µg/mL; in the data set with Klebsiella aerogenes A [2], 0.2 µg/mL; in the data set with Serratia marcescens US1 it was 0.4 µg/mL; in data set [4] it was 3.1 µg/mL; in the data set on Proteus retigeri VM16 it was 0.2 µg/mL; in data set [5], below 0.01 µg/mL. The MIC in [6] was found to be 0.4 µg/mL; in the data set on Proteus vulgaris W090, 0.2 µg/mL; in the data set with Klebsiella aerogenes A [7], 0.8 µg/mL; in the data set on Proteus morganii 1580 it was 1.6 µg/mL; in [8], 12.5 µg/mL; in data set [9], 0.2 µg/mL. The minimal inhibitory concentration (MIC) with Pseudomonas aeruginosa A was above 50 µg/mL; in data set [10] it was 0.4 µg/mL; in the data set on Proteus mirabilis 13 it was 1.6 µg/mL; with Streptococcus faccalis I it was 6.2 µg/mL; in the data set on E. coli 10418 it was 0.1 µg/mL; in the data set on Bacillus subtilis it was 0.2 µg/mL. Moreover, in the data set on E. coli JT4, the MIC was found to be 3.1 µg/mL. Further, the stability entry in data set [3] is “tends to decompose in solution”. Also, in the data set with Klebsiella aerogenes, the “activity (assayed, arbitrary units)” value is given as 16,000 units/mg.
As to `CC(=O)NCCSC1=C(C(=O)O)N2C(=O)C(C(C)OS(=O)(=O)O)C2C1` (stereo not shown) [di-sodium salt of MM 17880], in data set [11], the “synergy with β-lactam antibiotics” value is listed as “able to synergyse the anti-bacterial activity of β-lactam antibiotics”. Besides, the IC50 in data set [12] is 0.634 nM. In data set [13], the “level of antibacterial activity” value is given as “good level of antibacterial activity”.

The record behind these values is patent US4163051A, “Streptomycetal antibiotic” (Beecham Group Limited, priority 1975, dated 1979).
